Source: US20190224186A1, “TREATMENT OF MULTIPLE SCLEROSIS WITH CHS-131” (InteKrin Therapeutics, Inc., priority 2016, published 2019)
Where “and” joins values, the source holds several entries; their conditions need not be identical. Equal entries are not always repeated.

Key:
Assay type in all cases: in vivo, human
[1] = system: MS patients in the relapsing and remitting course of the disease (RRMS); experiment: Phase 2 trial: Expanded Disability Status Scale (EDSS) score
Excerpt: Several methods are used to diagnose and determine the impact of multiple sclerosis on patients. The McDonald criteria are used to diagnose multiple sclerosis on clinical grounds and MRI lesions consistent with MS. The Expanded Disability Status Scale (EDSS) quantifies disability in eight Functional Systems (FS) and allows neurologists to assign a Functional System Score (FSS) in each of these. The Multiple Sclerosis Functional Composite (MSFC) is a three-part, standardized, quantitative, assessment of function. The three components of the MSFC measure leg function/ambulation, arm/hand function, and cognitive function. The EDSS and MSFC scores are useful to determine if a drug improves or prevents loss of cognitive or physical function of a patient with MS. A drug is said to reduce MS-related dysfunction if it reduces a patient's EDSS or MSFC score. The study enrolled MS patients in the relapsing and remitting course of the disease (RRMS) who had been diagnosed within ≤3 years of enrollment. Patients had to be treatment-naïve, have ≥1 gadolinium-positive lesion within 12 months of enrollment, and have an Expanded Disability Status Score (EDSS) of 0-6 at screening. Part 1 was a double-blind, parallel-group, 6-month study. Patients were randomized to oral CHS-131 at 3 mg or 1 mg or placebo in a 1:1:1 ratio at 21 sites in Russia. Monthly MRIs were read in a blinded fashion at the Buffalo Neuroimaging and Analysis Center, Buffalo, N.Y., USA. Part 2 is an open label, 6-month, safety extension study, in which all subjects transition to 1 mg CHS-131 daily, to evaluate clinical response, CE lesions on MM, and safety. The EDSS scores are reported for the full analysis population in the table below.

[2] = system: MS patients in the relapsing and remitting course of the disease (RRMS); experiment: Phase 2 trial: whole brain volume by serial MRIs
Method: Whole brain volume was evaluated at baseline and six months in this study. Neural atrophy was measured by serial determination of brain volume using serial MRIs.

[3] = system: MS patients in the relapsing and remitting course of the disease (RRMS); experiment: Phase 2 trial: number of new gadolinium contrast-enhancing (CE) T1-weighted lesions on monthly MRI over 6 months; details: for LSMean cumulative number of new CE lesions over 6 months / mean cumulative number of new CE lesions over 6 months: n=70
Method: A Phase 2, randomized, double-blind, placebo-controlled, multi-center clinical trial of CHS-131 for the treatment of multiple sclerosis (MS) was conducted. The primary endpoint was the number of new gadolinium contrast-enhancing (CE) T1-weighted lesions on monthly MRI over 6 months.
The study enrolled MS patients in the relapsing and remitting course of the disease (RRMS) who had been diagnosed within ≤3 years of enrollment. Patients had to be treatment-naïve, have ≥1 gadolinium-positive lesion within 12 months of enrollment, and have an Expanded Disability Status Score (EDSS) of 0-6 at screening.
Part 1 was a double-blind, parallel-group, 6-month study. Patients were randomized to oral CHS-131 at 3 mg or 1 mg or placebo in a 1:1:1 ratio at 21 sites in Russia. Monthly MRIs were read in a blinded fashion at the Buffalo Neuroimaging and Analysis Center, Buffalo, N.Y., USA. Part 2 is an open label, 6-month, safety extension study, in which all subjects transition to 1 mg CHS-131 daily, to evaluate clinical response, CE lesions on MM, and safety.
The mean cumulative number of new CE lesions over 6 months was 4.2 (LSMean 3.10) for 3 mg CHS131 (n=70), 7.6 (LSMean 5.15) for 1 mg CHS131 (n=70), and 7.8 (LSMean 6.49) for placebo (n=69). The response was dose-dependent. […] FIG. 2 provides a graphical representation of these LSMean data.
Upon completion of the six month trial period described in Example 1, the number of new gadolinium CE T1-weighted lesions was evaluated in the entire study population and separately in men and women.
The ratios of changes in lesions were evaluated by a least square means (LSMeans) analysis. In such an analysis, multiple factors including both categorical (e.g. treatment, center, gender) and continuous covariates (e.g. baseline measures) can be accounted for.

[4] = system: MS patients in the relapsing and remitting course of the disease (RRMS); experiment: Phase 2 trial: change in cortical (neocortical) volume by MRI, SIENAX-MTP3; details: 3 mg
Method: Upon completion of the six-month trial period described in Example 1 the change in neocortical volume and whole brain volume was evaluated. Table 9 below reports the change in neocortical volumes at 3 months and at 6 months, compared to baseline, for the 3 mg and placebo groups. Baseline volume was normalized for head size. Percent change is calculated by […]-multi-time point (MTP3) algorithm. The difference in the mean change in volume calculated to determine the impact treatment with CHS-131.

[5] = system: MS patients in the relapsing and remitting course of the disease (RRMS); experiment: as above; details: 1 mg

## O=S(=O)(Nc1cc(Cl)c(Oc2cnc3ccccc3c2)c(Cl)c1)c1ccc(Cl)cc1Cl [CHS-131]
[1]; 1 mg
  Month 3 EDSS % change from baseline: −0.49%
  Month 6 EDSS % change from baseline: −2.94%
[1]; 1 mg, n=74
  Month 3 EDSS Mean (SD): 2.03 (0.961)
  Month 6 EDSS Mean (SD): 1.98 (0.974)
[1]; 3 mg
  Month 3 EDSS % change from baseline: −0.46%
  Month 6 EDSS % change from baseline: −4.59%
[1]; 3 mg, n=73
  Month 6 EDSS Mean (SD): 2.08 (0.846)
[1]; 3 mg, n=74
  Month 3 EDSS Mean (SD): 2.17 (0.945)
[2]; 1 mg daily, 6 months
  less neural volume loss compared to placebo: 13%
[2]; 1 mg/day
  brain volume lost over 6 months: 0.14%
[2]; 3 mg daily, 6 months
  less parenchymal atrophy than the placebo treated cohort: 50%
[2]; 3 mg/day
  neural parenchyma volume lost over 6 months: 0.08%
[3]; 1 mg, 6 months
  incidence of new CE lesions lower than with placebo: 21%
[3]; 1 mg
  LSMean cumulative number of new CE lesions over 6 months: 5.15
  mean cumulative number of new CE lesions over 6 months: 7.6
[3]; 3 mg
  LSMean cumulative number of new CE lesions over 6 months: 3.10
  mean cumulative number of new CE lesions over 6 months: 4.2
[3]; 3 mg, whole population, 6 months, p=0.003
  reduction of incidence of new CE lesions versus placebo: 52% and 53%
[3]; Female, 1 mg
  LSMean # of Lesions (new gadolinium CE T1-weighted, 6 months): 5.48
  Mean # of Lesions (new gadolinium CE T1-weighted, 6 months, observed data): 8.01
  Percent Change from Placebo (observed mean # of lesions): 3.2%
[3]; Female, 1 mg, p 0.8481
  Percent Change from Placebo (inverse of ratio of LSMeans treatment:placebo): −5% (0.8481)
[3]; Female, 3 mg
  LSMean # of Lesions (new gadolinium CE T1-weighted, 6 months): 4.18
  Mean # of Lesions (new gadolinium CE T1-weighted, 6 months, observed data): 4.97
  Percent Change from Placebo (observed mean # of lesions): −36.0%
[3]; Female, 3 mg, p 0.2516
  Percent Change from Placebo (inverse of ratio of LSMeans treatment:placebo): −28% (0.2516)
[3]; Male & Female, 1 mg
  LSMean # of Lesions (new gadolinium CE T1-weighted, 6 months): 5.15
  Mean # of Lesions (new gadolinium CE T1-weighted, 6 months, observed data): 7.19
  Percent Change from Placebo (observed mean # of lesions): −9.6%
[3]; Male & Female, 1 mg, p 0.3049
  Percent Change from Placebo (inverse of ratio of LSMeans treatment:placebo): −21% (0.3049)
[3]; Male & Female, 3 mg
  LSMean # of Lesions (new gadolinium CE T1-weighted, 6 months): 3.10
  Mean # of Lesions (new gadolinium CE T1-weighted, 6 months, observed data): 4.51
  Percent Change from Placebo (observed mean # of lesions): −43.3%
[3]; Male & Female, 3 mg, p 0.0016
  Percent Change from Placebo (inverse of ratio of LSMeans treatment:placebo): −52% (0.0016)
[3]; Male, 1 mg
  LSMean # of Lesions (new gadolinium CE T1-weighted, 6 months): 4.31
  Mean # of Lesions (new gadolinium CE T1-weighted, 6 months, observed data): 5.93
  Percent Change from Placebo (observed mean # of lesions): −30.4%
[3]; Male, 1 mg, p 0.0827
  Percent Change from Placebo (inverse of ratio of LSMeans treatment:placebo): −48% (0.0827)
[3]; Male, 3 mg
  LSMean # of Lesions (new gadolinium CE T1-weighted, 6 months): 2.42
  Mean # of Lesions (new gadolinium CE T1-weighted, 6 months, observed data): 3.81
  Percent Change from Placebo (observed mean # of lesions): −55.4%
[3]; Male, 3 mg, p 0.0012
  Percent Change from Placebo (inverse of ratio of LSMeans treatment:placebo): −71% (0.0012)
[3]; men, 3 mg per day
  reduction of new T1 lesions in the study analysis: 71%
[4]; 3 Months
  Cortical volume rate of loss: −0.297
  Reduction in cortical volume loss from CHS-131, as compared to placebo: 42.6%
[4]; 6 Months
  Cortical volume rate of loss: −0.709
  Reduction in cortical volume loss from CHS-131, as compared to placebo: 34.2%
[4]; n=56
  Cortical volume, percent change from baseline to 6 month, Mean: −0.709%
  Cortical volume, percent change from baseline to 6 month, Median: −0.832%
[4]; n=61
  Cortical volume, percent change from baseline to 3 month, Mean: −0.297%
  Cortical volume, percent change from baseline to 3 month, Median: −0.325%
[5]
  reduction in the loss of cortical volume: No reduction in the loss of cortical volume was observed
[5]; n=50
  Cortical volume, percent change from baseline to 6 month, Mean: −1.350%
  Cortical volume, percent change from baseline to 6 month, Median: −1.428%
[5]; n=57
  Cortical volume, percent change from baseline to 3 month, Mean: −0.706%
  Cortical volume, percent change from baseline to 3 month, Median: −0.746%
